In patent US20240067657A1, “AMIDO-SUBSTITUTED PYRIDYL COMPOUNDS AND METHODS OF USE THEREOF FOR THE TREATMENT OF HERPESVIRUSES” (Merck Sharp & Dohme LLC, priority 2020, published 2024):
Read-outs that look alike come from different tables or passages of the source.

Key:
[1] = biological target: T1, Human cytomegalovirus DNA polymerase (Human cytomegalovirus, UniProt P08546); experiment: HCMV polymerase assay (AlphaLISA, IC50); assay type: biochemical; settings: polymerase assay of Example 190
T1 construct: made in house; host or cells: SF21 insect cells (baculovirus vector)
Procedure, shortened: (§1)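 Baculovirus-expressed polymerase (HCMV 0.2 nM, VZV 0.4 nM final) preincubated 30 min at room temperature with compound in pH 7.5 HEPES buffer; reaction started with 1.6 nM DIG-primer/template and nM dNTPs including biotin-dUTP, run 60 min at 37° C. Incorporation detected by AlphaLISA; IC50 from 4-parameter fit.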

[2] = biological target: T2, varicella zoster virus DNA polymerase (Varicella-zoster virus, UniProt P09252); experiment: VZV polymerase assay (AlphaLISA, IC50); assay type: biochemical; settings: polymerase assay of Example 190
T2 construct: made in house; host or cells: SF21 insect cells (baculovirus vector)
Procedure, shortened: as §1

[3] = system: HCMV Strain AD169 in MRC-5 cells; experiment: Viral qPCR assay HCMV (V0/V1, V2/V3), EC50; assay type: cell-based; settings: Human betaherpesvirus 5, AD169, MRC5, viral qPCR assay of Example 191; read-out: HCMV Cell (EC50)
Procedure, shortened: (§2)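 Infected cells added to compounds (10-point 3-fold series), ~72 h at 37 °C, then lysed; viral genomes by TaqMan qPCR against plasmid standard, normalized to PPIA in V0/V1 only, EC50 from 4-parameter fit. HCMV AD169, 0.05-0.1 pfu/cell, ± 50% FBS; VZV 0.04-0.1 pfu/cell; HSV-1 F 0.0005-0.004 pfu/cell.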

[4] = system: VZV in MeWo or MRC5 cells; experiment: Viral qPCR assay VZV (V0/V1, V2/V3), EC50; assay type: cell-based; settings: 10%
Procedure, shortened: as §2

[5] = system: HSV-1 Strain F in Vero or MRC5 cells; experiment: Viral qPCR assay HSV-1 (V0/V1, V2/V3), EC50; assay type: cell-based; settings: 10%
Procedure, shortened: as §2

[6] = Human alphaherpesvirus 3, MRC5, MRC5 cells, read-out: VZV Cell (EC50) MRC5 10%
[7] = Human alphaherpesvirus 1, MRC5, MRC5 cells, read-out: HSV1 Cell (EC50) MRC5 10%
[8] = Human alphaherpesvirus 3, MeWo, MEWO cells, read-out: VZV Cell (EC50) MEWO 10%
[9] = Human alphaherpesvirus 1, Vero, VERO cells, read-out: HSV1 Cell (EC50) VERO 10%

T1 sequence (P08546 whole entry): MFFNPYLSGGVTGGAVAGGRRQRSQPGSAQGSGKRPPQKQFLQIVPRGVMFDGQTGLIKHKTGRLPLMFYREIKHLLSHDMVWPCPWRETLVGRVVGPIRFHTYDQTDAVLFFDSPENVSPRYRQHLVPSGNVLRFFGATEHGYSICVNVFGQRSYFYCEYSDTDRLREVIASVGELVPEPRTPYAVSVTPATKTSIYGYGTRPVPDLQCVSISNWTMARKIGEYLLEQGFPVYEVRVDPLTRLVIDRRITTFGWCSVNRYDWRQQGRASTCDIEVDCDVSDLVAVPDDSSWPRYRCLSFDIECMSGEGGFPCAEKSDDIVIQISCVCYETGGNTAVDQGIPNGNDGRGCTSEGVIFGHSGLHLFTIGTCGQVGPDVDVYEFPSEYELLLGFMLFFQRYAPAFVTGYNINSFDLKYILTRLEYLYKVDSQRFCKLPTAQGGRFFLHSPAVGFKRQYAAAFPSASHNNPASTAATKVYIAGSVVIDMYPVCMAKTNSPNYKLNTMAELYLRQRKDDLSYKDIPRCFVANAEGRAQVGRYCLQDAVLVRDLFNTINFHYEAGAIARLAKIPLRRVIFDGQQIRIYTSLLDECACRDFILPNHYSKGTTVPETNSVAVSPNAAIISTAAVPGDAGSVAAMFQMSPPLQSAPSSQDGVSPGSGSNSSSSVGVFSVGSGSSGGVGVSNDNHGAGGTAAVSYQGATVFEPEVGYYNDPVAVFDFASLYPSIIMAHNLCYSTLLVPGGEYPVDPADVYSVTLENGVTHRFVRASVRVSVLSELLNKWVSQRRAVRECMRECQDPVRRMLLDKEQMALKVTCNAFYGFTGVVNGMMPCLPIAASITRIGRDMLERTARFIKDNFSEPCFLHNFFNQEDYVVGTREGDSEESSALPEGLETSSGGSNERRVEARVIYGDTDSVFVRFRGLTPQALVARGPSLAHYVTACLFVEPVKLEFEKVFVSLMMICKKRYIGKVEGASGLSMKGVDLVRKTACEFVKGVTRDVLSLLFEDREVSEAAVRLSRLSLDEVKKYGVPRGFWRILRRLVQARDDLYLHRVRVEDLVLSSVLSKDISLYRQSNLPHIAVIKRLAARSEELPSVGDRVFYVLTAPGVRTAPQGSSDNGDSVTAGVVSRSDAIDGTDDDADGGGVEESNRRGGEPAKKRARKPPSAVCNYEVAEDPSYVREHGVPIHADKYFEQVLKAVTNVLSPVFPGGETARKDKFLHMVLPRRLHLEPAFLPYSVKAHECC
T2 sequence (P09252 whole entry): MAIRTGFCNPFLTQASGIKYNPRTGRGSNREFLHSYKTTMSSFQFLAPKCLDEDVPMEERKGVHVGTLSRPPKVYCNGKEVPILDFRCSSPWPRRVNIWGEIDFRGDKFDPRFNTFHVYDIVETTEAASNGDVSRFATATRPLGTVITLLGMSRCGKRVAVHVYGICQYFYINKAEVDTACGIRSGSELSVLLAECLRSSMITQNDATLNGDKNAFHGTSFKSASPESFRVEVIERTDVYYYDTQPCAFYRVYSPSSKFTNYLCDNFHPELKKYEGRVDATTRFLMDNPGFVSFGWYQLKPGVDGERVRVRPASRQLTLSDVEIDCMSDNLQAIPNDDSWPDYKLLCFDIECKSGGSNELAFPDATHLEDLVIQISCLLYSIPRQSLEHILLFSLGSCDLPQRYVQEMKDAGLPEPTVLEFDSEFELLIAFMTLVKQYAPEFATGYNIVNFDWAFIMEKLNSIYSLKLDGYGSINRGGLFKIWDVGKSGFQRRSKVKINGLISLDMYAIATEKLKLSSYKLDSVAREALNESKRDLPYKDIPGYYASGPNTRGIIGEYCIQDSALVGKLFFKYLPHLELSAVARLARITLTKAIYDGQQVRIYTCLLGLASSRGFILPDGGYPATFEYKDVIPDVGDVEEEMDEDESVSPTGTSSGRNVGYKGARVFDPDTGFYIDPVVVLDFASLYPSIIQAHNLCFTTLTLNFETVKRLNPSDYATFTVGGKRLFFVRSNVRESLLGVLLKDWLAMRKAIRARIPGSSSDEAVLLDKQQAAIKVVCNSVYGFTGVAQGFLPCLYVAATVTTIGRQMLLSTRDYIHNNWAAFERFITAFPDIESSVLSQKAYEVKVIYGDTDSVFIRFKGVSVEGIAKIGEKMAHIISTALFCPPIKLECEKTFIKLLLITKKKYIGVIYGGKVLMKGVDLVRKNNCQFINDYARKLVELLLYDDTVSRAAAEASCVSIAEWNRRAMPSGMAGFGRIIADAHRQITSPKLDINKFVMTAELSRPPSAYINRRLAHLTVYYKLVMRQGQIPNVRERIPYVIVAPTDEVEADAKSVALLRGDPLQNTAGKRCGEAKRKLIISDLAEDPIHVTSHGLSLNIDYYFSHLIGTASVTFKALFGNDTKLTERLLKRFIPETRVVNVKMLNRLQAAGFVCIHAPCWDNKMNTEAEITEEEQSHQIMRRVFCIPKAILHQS

| SMILES | IC50 [1] [nM] | IC50 [2] [nM] | EC50 [3] [nM] | EC50 [4, 6] [nM] | EC50 [5, 7] [nM] | EC50 [4, 8] [nM] | EC50 [5, 9] [nM] |
| --- | --- | --- | --- | --- | --- | --- | --- |
| Cc1nsc(-c2cnc(C(=O)NCc3ccc(Cl)cc3)cc2O[C@H]2CCN3C(=O)OC[C@@H]3C2)n1 [Compound 39] | 10.3 | 1.25 | 86.7 | 98 | 60.1 | – | – |
| O=C(NCc1ccc(Cl)cc1)c1cc(O[C@H]2CCN3C(=O)OC[C@@H]3C2)c(-c2nccs2)cn1 [Compound 40] | 10.4 | 9.39 | 55.7 | – | – | 16.7 | 30.8 |
| Cc1cnc(-c2cnc(C(=O)NCc3ccc(Cl)cc3)cc2O[C@H]2CCN3C(=O)OC[C@@H]3C2)s1 [Compound 41] | 5 | 3.88 | 89.9 | 97.4 | 39 | 70.8 | 12.2 |
| Cc1ncc(-c2cnc(C(=O)NCc3ccc(Cl)cc3)cc2O[C@H]2CCN3C(=O)OC[C@@H]3C2)s1 [Compound 42] | 5.3 | 3.76 | 58.9 | 79.9 | 51.7 | 48.5 | 40.8 |
| CC(=O)N1CCC(Oc2cc(C(=O)NCc3ccc(Cl)cc3)ncc2-c2cnc(C)s2)CC1 [Compound 43] | 24.9 | 14.6 | 179 | 140 | 106 | – | – |
| CC(=O)N1CCC(Oc2cc(C(=O)NCc3ccc(Cl)cc3)ncc2-c2cc(C)ns2)CC1 [Compound 44] | 26.2 | 1.98 | 182 | 120 | 154 | – | – |
| COc1cc(-c2cnc(C(=O)NCc3ccc(Cl)cc3)cc2OC2CCN(C(C)=O)CC2)sn1 [Compound 45] | 28.9 | 3.37 | 455 | 128 | 135 | – | – |
| CC(=O)N1CCC(Oc2cc(C(=O)NCc3ccc(Cl)cc3)ncc2-c2ccns2)CC1 [Compound 46] | 20.8 | 3.98 | 148 | 113 | 92.1 | – | – |
| CC(=O)N1CCC(Oc2cc(C(=O)NCc3ccc(Cl)cc3)ncc2-c2cn(C)c(C)n2)CC1 [Compound 48] | 31.9 | 29.4 | 373 | 294 | 190 | – | – |
| CC(=O)N1CCC(Oc2cc(C(=O)NCc3ccc(Cl)cc3)ncc2-c2nc(C)ns2)CC1 [Compound 49] | 36.3 | 17.6 | 155 | 794 | 510 | – | – |
| CC(=O)N1CCC(Oc2cc(C(=O)NCc3ccc(Cl)cc3)ncc2-c2nnc(C)s2)CC1 [Compound 54] | 61.6 | 14.9 | 768 | 181 | 241 | – | – |
| CC(=O)N1CCC(Oc2cc(C(=O)NCc3ccc(Cl)cc3)ncc2-c2nnc(C3CC3)s2)CC1 [Compound 57] | 86.9 | 12.7 | 133 | 203 | 110 | – | – |
| CC(=O)N1CCC(Oc2cc(C(=O)NCc3ccc(Cl)cc3)ncc2-c2ccn(C)n2)CC1 [Compound 61] | 238 | 181 | 484 | – | – | 81.6 | 108 |
| CC(=O)N1CCC(Oc2cc(C(=O)NCc3ccc(Cl)cc3)ncc2-c2cnn(CCO)c2)CC1 [Compound 62] | 222 | 67.5 | 1580 | – | – | 162 | 4880 |
| CC(=O)N1CCC(Oc2cc(C(=O)NCc3ccc(Cl)cc3)ncc2-c2ncc(C)s2)CC1 [Compound 63] | 13.5 | 11.1 | 246 | 215 | 310 | – | 34.2 |
| CC(=O)N1CCC(Oc2cc(C(=O)NCc3ccc(Cl)cc3)ncc2-c2cc[nH]n2)CC1 [Compound 64] | 164 | 65.3 | 1020 | – | – | 440 | 1170 |
| CC(=O)N1CCC(Oc2cc(C(=O)NCc3ccc(Cl)cc3)ncc2-c2cnco2)CC1 [Compound 65] | 35.5 | 11.8 | 769 | 721 | 288 | – | – |
| CC(=O)N1CCC(Oc2cc(C(=O)NCc3ccc(Cl)cc3)ncc2-c2cnc(C)o2)CC1 [Compound 66] | 47.4 | 18.6 | 250 | 288 | 242 | – | – |

| SMILES | IC50 [1] [nM] | IC50 [2] [nM] | EC50 [3] [nM] | EC50 [4, 6] [nM] | EC50 [5, 7] [nM] | EC50 [4, 8] [nM] | EC50 [5, 9] [nM] |
| --- | --- | --- | --- | --- | --- | --- | --- |
| CC(=O)N1CCC(Oc2cc(C(=O)NCc3ccc(Cl)cc3)ncc2-c2cnc(C3CC3)o2)CC1 [Compound 67] | 50.7 | 21.7 | 612 | 706 | 660 | – | – |
| Cc1cnc(C(=O)NCc2ccc(Cl)cc2)cc1O[C@H]1CCN2C(=O)OC[C@@H]2C1 [Compound 68] | 51.4 | 38.7 | 603 | 1080 | 689 | 126 | 270 |
| CC(=O)N1CCC(Oc2cc(C(=O)NCc3ccc(Cl)cc3)ncc2-c2cn[nH]c2)CC1 [Compound 69] | 109 | 32.5 | 678 | – | – | 351 | 1110 |
| CC(=O)N1CCC(Oc2cc(C(=O)NCc3ccc(Cl)cc3)ncc2-c2cnn(C(F)F)c2)CC1 [Compound 70] | 117 | 27.8 | 1220 | – | – | 298 | 430 |
| CC(=O)N1CCC(Oc2cc(C(=O)NCc3ccc(Cl)cc3)ncc2/C=C\c2ccccn2)CC1 [Compound 77] | 103 | 37.2 | 825 | – | – | 230 | 122 |
| O=C(NCc1ccc(Cl)cc1)c1cc(O[C@H]2CCN3C(=O)OC[C@@H]3C2)c(CN2CCOCC2)cn1 [Compound 78] | 83.2 | 31.7 | 446 | – | – | 642 | 560 |
| O=C(NCc1ccc(Cl)c(F)c1)c1cc(O[C@H]2CCN3C(=O)OC[C@@H]3C2)c(-c2cnn(C(F)F)c2)cn1 [Compound 79] | 6.9 | 5.19 | 103 | 209 | 219 | – | 196 |
| C[C@H](NC(=O)c1cc(O[C@H]2CCN3C(=O)OC[C@@H]3C2)c(-c2cnn(C(F)F)c2)cn1)c1ccc(Cl)cc1 [Compound 81] | 14.3 | 11.9 | 312 | 307 | 153 | – | – |
| O=C(NCc1ccc([N+](=O)[O-])cc1)c1cc(O[C@H]2CCN3C(=O)OC[C@@H]3C2)c(-c2cnn(C(F)F)c2)cn1 [Compound 82] | 16 | 9.02 | 90.5 | 243 | 125 | – | – |
| N#Cc1ccc(CNC(=O)c2cc(O[C@H]3CCN4C(=O)OC[C@@H]4C3)c(-c3cnn(C(F)F)c3)cn2)c(F)c1 [Compound 84] | 25.9 | 26.7 | 350 | 345 | 463 | 66.8 | 520 |
| O=C(NCc1ccc(Cl)nc1)c1cc(O[C@H]2CCN3C(=O)OC[C@@H]3C2)c(-c2cnn(C(F)F)c2)cn1 [Compound 86] | 189 | 20.6 | 754 | – | – | 825 | 1450 |
| O=C(NCc1ccc(F)c(F)c1F)c1cc(O[C@H]2CCN3C(=O)OC[C@@H]3C2)c(-c2cnn(C(F)F)c2)cn1 [Compound 87] | 86.3 | 38.8 | 626 | – | – | 441 | 378 |
| O=C(NCc1ccc(Cl)cn1)c1cc(O[C@H]2CCN3C(=O)OC[C@@H]3C2)c(-c2cnn(C(F)F)c2)cn1 [Compound 90] | 189 | 105 | 1040 | 5990 | 2550 | 737 | 853 |
| N#Cc1ccc(CNC(=O)c2cc(O[C@H]3CCN4C(=O)OC[C@@H]4C3)c(-c3cnn(C(F)F)c3)cn2)cc1 [Compound 91] | 32.5 | 17.4 | 239 | – | – | 265 | 239 |
| Cn1cc(-c2cnc(C(=O)NCc3ccc(C#N)c(F)c3)cc2O[C@H]2CCN3C(=O)OC[C@@H]3C2)cn1 [Compound 93] | 1.42 | 1.99 | 66.7 | 118 | 124 | – | 241 |
| Cn1cc(-c2cnc(C(=O)NCc3ccc(F)c(F)c3F)cc2O[C@H]2CCN3C(=O)OC[C@@H]3C2)cn1 [Compound 94] | 31.7 | 21.4 | 111 | 427 | 412 | 155 | 368 |
| Cn1cc(-c2cnc(C(=O)NCc3ccc(Cl)c(F)c3)cc2O[C@H]2CCN3C(=O)OC[C@@H]3C2)cn1 [Compound 96] | 5.46 | 3.36 | 86.3 | 132 | 71 | 53.6 | 118 |
